# According to PubChem BioAssay (NCI):
# Values joined by “and” are separate entries in the source; they are usually repeats but may differ in a detail not shown here. Equal values may be shown once.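 How tested: cells in 96-well plates exposed to compound for 48 hours at five concentrations. GI50 is the concentration that inhibits growth by half. At the TGI there is no net growth.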
# Columns and labels:
# Experiment in all cases: NCI tumour cell line growth inhibition, 48 h
# NCI-H23 lung = tested on: NCI-H23 lung
# CCRF-CEM leukemia = tested on: CCRF-CEM leukemia
# RPMI-8226 leukemia = tested on: RPMI-8226 leukemia
# EKVX NSCLC = tested on: EKVX NSCLC
# HCC-2998 colon = tested on: HCC-2998 colon
# COLO 205 colon = tested on: COLO 205 colon
# NCI-H226 lung = tested on: NCI-H226 lung
# HS 578T breast = tested on: HS 578T breast
# HCT-116 colon = tested on: HCT-116 colon
# CAKI-1 renal = tested on: CAKI-1 renal
SMILES,GI50 (NCI-H23 lung),TGI (NCI-H23 lung),GI50 (CCRF-CEM leukemia),TGI (CCRF-CEM leukemia),GI50 (RPMI-8226 leukemia),TGI (RPMI-8226 leukemia),GI50 (EKVX NSCLC),TGI (EKVX NSCLC),GI50 (HCC-2998 colon),TGI (HCC-2998 colon),GI50 (COLO 205 colon),TGI (COLO 205 colon),GI50 (NCI-H226 lung),TGI (NCI-H226 lung),GI50 (HS 578T breast),TGI (HS 578T breast),GI50 (HCT-116 colon),TGI (HCT-116 colon),TGI (CAKI-1 renal),GI50 (CAKI-1 renal)
Clc1ccc(Nc2nnc(COc3ccccc3)c3ccccc23)cc1,1.56 µM,7.87 µM,2.8 µM,14.2 µM,1.37 µM,6.96 µM,0.679 µM,7.32 µM,3.81 µM,8.36 µM,0.456 µM,4.38 µM,1.56 µM,6.58 µM,2.58 µM,10.5 µM,1.07 µM,4.83 µM,,
CC1NCCC(CC(=O)O)C1CC(=O)O (centres undefined),,> 100 µM,,> 100 µM,,> 100 µM,,> 100 µM,,> 100 µM,,> 100 µM,,> 100 µM,,> 100 µM,,> 100 µM,> 100 µM,
C[C@H]1O[C@@H](O[C@H]2[C@@H](O)C[C@H](O[C@H]3[C@@H](O)C[C@H](O[C@H]4CC[C@]5(C)C6CC[C@]7(C)[C@@H](C8=CC(=O)OC8)CC[C@]7(O)C6CC[C@@H]5C4)O[C@@H]3C)O[C@@H]2C)C[C@H](O)[C@@H]1O (some centres undefined),0.0117 µM,0.0355 µM,,,0.0194 µM,0.135 µM,0.0141 µM,0.0383 µM,0.0361 µM,0.174 µM,0.0309 µM,0.102 µM,0.0476 µM,0.115 µM,0.013 µM,1.57 µM,,0.0494 µM,0.0339 µM,0.0126 µM
C=C1CC2(CC(c3ccccc3C)OC(c3ccccc3C)C2)OC1=O (centres undefined),,3.9 µM,,5.75 µM,,4.12 µM,,30.1 µM,,5.82 µM,,3.68 µM,,18.7 µM,,5.43 µM,,3.21 µM,4.26 µM,
C/C=C1/CN2CCC34c5ccccc5N5C(=O)C(C6CC78c9ccccc9N9C(=O)C=CC(C%10CC7N6C/C%10=C/C)C98)=CC(C1CC23)C54 (centres undefined),3.94 µM,13.1 µM and 15.5 µM,1.6 µM,2.05 µM and 4.39 µM,,,12.5 µM,14.5 µM and 26.4 µM,13.4 µM,12.2 µM and 29.9 µM,8.74 µM,12.4 µM and 26.6 µM,24 µM,15 µM and 46 µM,16.6 µM,20.9 µM and 73.2 µM,2.3 µM,12.1 µM and 5.45 µM,21.2 µM and 26.8 µM,
COc1ccc(COc2ccc(Cc3cnc(N)nc3N)cc2OC)cc1,> 17.1 µM,> 25 µM,> 25 µM,> 25 µM,> 19.9 µM,> 25 µM,> 16.2 µM,> 25 µM,> 25 µM,> 25 µM,4.27 µM,8.15 µM,16 µM,> 25 µM,> 23.4 µM,> 25 µM,14.6 µM,> 25 µM,> 25 µM,> 24.1 µM
O=C(Nc1ccc([N+](=O)[O-])cc1Cl)c1cc(Cl)ccc1O,0.104 µM and 0.19 µM,0.39 µM and 0.737 µM,0.133 µM and 0.305 µM,,0.0502 µM and 0.176 µM,0.287 µM,0.16 µM and 0.315 µM,,0.215 µM and 0.452 µM,2.58 µM and 3.43 µM,1.34 µM and 1.52 µM,3.26 µM and 3.22 µM,0.155 µM and 0.334 µM,,0.133 µM and 0.207 µM,,0.121 µM and 0.172 µM,0.397 µM and 0.483 µM,4.21 µM,0.108 µM and 0.227 µM
Cc1ccc(O)c(C(=O)/C=C/c2ccccc2)c1,,> 100 µM,,> 100 µM,,> 100 µM,,> 100 µM,,> 100 µM,,> 100 µM,,> 100 µM,,> 100 µM,,> 100 µM,> 100 µM,
CC#CC#C/C=C1/C=CC2(CCCCO2)O1 (centres undefined),,> 100 µM,,53.9 µM,,,,> 100 µM,,> 100 µM,,> 100 µM,,> 100 µM,,> 100 µM,,> 100 µM,> 100 µM,
Cc1cc(C(=O)NOCCO)c(Nc2ccc(I)cc2F)n(C)c1=O,0.0237 µM and 0.0131 µM,> 100 µM,> 100 µM,> 100 µM,> 10 µM and 37.9 µM,> 100 µM,0.0233 µM,> 10 µM,0.00297 µM and < 0.01 µM,> 6.94 µM,< 0.01 µM,> 100 µM,> 10 µM and 5.83 µM,> 100 µM,> 10 µM and 37.2 µM,> 100 µM,0.011 µM and 0.0164 µM,> 100 µM,> 100 µM,0.185 µM
Cc1ccccc1N=C(c1ccccc1)C1C(=O)c2ccccc2C1=O,15.8 µM,> 100 µM,12.8 µM,62.3 µM,4.27 µM,27 µM,22.2 µM,87.6 µM,19.2 µM,54.2 µM,13.8 µM,38.5 µM,19.4 µM,57.5 µM,18.3 µM,95.3 µM,2.34 µM,16.2 µM,> 100 µM,21 µM
Cc1cccc(Nc2ncc(-c3ccccc3)o2)c1,> 25 µM,> 25 µM,> 25 µM,> 25 µM,> 25 µM,> 25 µM,> 25 µM,> 25 µM,> 25 µM,> 25 µM,> 25 µM,> 25 µM,> 25 µM,> 25 µM,> 7 µM,> 25 µM,> 25 µM,> 25 µM,> 25 µM,> 25 µM
c1ccc2cc(Cn3c(-c4cccc5ccccc45)[n+](Cc4ccc5ccccc5c4)c4c5ccccc5c5ccccc5c43)ccc2c1,0.248 µM,1.15 µM,0.362 µM,2.31 µM,0.101 µM,0.861 µM,0.268 µM,1.66 µM,0.328 µM,1.59 µM,,,,,0.383 µM,2.45 µM,0.176 µM,1.5 µM,,
Cc1c(-c2c(F)cc(C(N)=O)c3[nH]c4c(c23)CC[C@H](C(C)(C)O)C4)cccc1-n1c(=O)c2cccc(F)c2n(C)c1=O,2.79 µM,> 100 µM,4.52 µM,> 100 µM,2.82 µM,9.01 µM,1.95 µM,> 100 µM,2.81 µM,51.5 µM,,,3.84 µM,26.4 µM,4.62 µM,> 100 µM,2.66 µM,> 100 µM,> 100 µM,2.08 µM
